# Source: patent US4486419A, “5,2',3',4',4",6"-Hexadeoxykanamycin and its 1-N-acylated derivative” (Zaidan Hojin Biseibutsu Kagaku Kenkyu Kai, priority 1982, dated 1984)
# Read-outs that look alike come from different tables or passages of the source.
# Tests used:
# Providencia 2991 = format: cell-based; conditions: nutrient agar, 37° C., 18 hours
# [1] = tested on: Klebsiella pneumoniae PCI 602; format: cell-based; conditions: PCI602, nutrient agar, 37° C., 18 hours
# Escherichia coli K-12 = format: cell-based; conditions: K12, nutrient agar, 37° C., 18 hours
# [2] = tested on: Staphylococcus aureus Smith; format: cell-based; conditions: nutrient agar, 37° C., 18 hours
# [3] = tested on: Bacillus subtilis PCI 219; format: cell-based; conditions: PCI219, nutrient agar, 37° C., 18 hours
# [4] = tested on: Pseudomonas aeruginosa ROS134/PU21; format: cell-based; conditions: ROS134/PU21, 18 h
# [5] = tested on: Pseudomonas maltophilia GN907; format: cell-based; conditions: Stenotrophomonas maltophilia, nutrient agar, 37° C., 18 hours
# [6] = tested on: Staphylococcus epidermidis 109; format: cell-based; conditions: nutrient agar, 37° C., 18 hours
# [7] = tested on: Pseudomonas aeruginosa A3; format: cell-based
# Providencia Pv 16 = format: cell-based; conditions: PV16, nutrient agar, 37° C., 18 hours
# Serratia SOU = format: cell-based; conditions: nutrient agar, 37° C., 18 hours
# [8] = tested on: Pseudomonas aeruginosa K-Ps102; format: cell-based
# Proteus rettgeri GN466 = format: cell-based; conditions: Providencia rettgeri, nutrient agar, 37° C., 18 hours
# [9] = tested on: Bacillus subtilis NRRL B-558; format: cell-based; conditions: NRRLB558, nutrient agar, 37° C., 18 hours
# [10] = tested on: Escherichia coli K-12 ML 1410 R81; test: microbe, parasite or virus in culture; format: cell-based; conditions: 18 h
# [11] = tested on: Salmonella enteritidis 1891; format: cell-based; conditions: Salmonella enterica, nutrient agar, 37° C., 18 hours
# [12] = tested on: Pseudomonas aeruginosa 99; format: cell-based
# Serratia 4 = format: cell-based; conditions: nutrient agar, 37° C., 18 hours
# Proteus vulgaris OX19 = format: cell-based; conditions: nutrient agar, 37° C., 18 hours
# [13] = tested on: Mycobacterium smegmatis ATCC 607; format: cell-based; conditions: Mycolicibacterium smegmatis, ATCC607; nutrient agar, 37° C., 18 hours
# Shigella sonnei JS11746 = format: cell-based; conditions: nutrient agar, 37° C., 18 hours
# [14] = tested on: Escherichia coli K-12 ML 1629; format: cell-based; conditions: K12ML1629, nutrient agar, 37° C., 18 hours
# Serratia marcescens = test: microbe, parasite or virus in culture; conditions: 18 h
# Protocol: (§1) Thus, the minimum inhibitory concentrations (mcg/ml) of the hexadeoxykanamycin and of the hexadeoxyamikacin according to this invention against various microorganisms were determined according to serial dilution method on a nutrient agar medium at 37° C., the estimation being made after 18 hours incubation. For comparison purpose, the minimum inhibitory concentrations of amikacin were also determined in the same manner as stated above.
# [15] = tested on: Corynebacterium bovis 1810; test: microbe, parasite or virus in culture; conditions: Corynebacterium bovis, 1810, 18 h
# Protocol: as §1
# [16] = tested on: Klebsiella pneumoniae 22 #3038; format: cell-based; conditions: nutrient agar, 37° C., 18 hours
# [17] = tested on: Escherichia coli K-12 LA 290 R55; test: microbe, parasite or virus in culture; format: cell-based; conditions: K12LA290R55, 18 h
# [18] = tested on: Pseudomonas aeruginosa B-13; format: cell-based
# [19] = tested on: Escherichia coli K-12 LA 290 R64; test: microbe, parasite or virus in culture; format: cell-based; conditions: K12LA290R64, 18 h
# [20] = tested on: Escherichia coli K-12 R 388; format: cell-based; conditions: K12R388, 18 h
# [21] = tested on: Pseudomonas aeruginosa H11; format: cell-based; conditions: nutrient agar, 37° C., 18 hours
# [22] = tested on: Pseudomonas aeruginosa PST1; format: cell-based; conditions: nutrient agar, 37° C., 18 hours
# Escherichia coli JR255 = test: microbe, parasite or virus in culture; format: cell-based; conditions: JR255, 18 h
# Escherichia coli W677 = format: cell-based; conditions: nutrient agar, 37° C., 18 hours
# [23] = tested on: Micrococcus luteus PCI 1001; format: cell-based; conditions: PCI1001, nutrient agar, 37° C., 18 hours
# [24] = tested on: Escherichia coli K-12 C 600R135; test: microbe, parasite or virus in culture; format: cell-based; conditions: K12C600R135, 18 h
# [25] = tested on: Pseudomonas aeruginosa GN315; format: cell-based; conditions: nutrient agar, 37° C., 18 hours
# [26] = tested on: Escherichia coli JR66/W677; format: cell-based; conditions: JR66/W677, 18 h
# [27] = tested on: Escherichia coli K-12 J5R 11-2; format: cell-based; conditions: K12J5R112, nutrient agar, 37° C., 18 hours
# [28] = tested on: Shigella flexneri 4b JS11811; format: cell-based; conditions: 4BJS11811, nutrient agar, 37° C., 18 hours
# [29] = tested on: Pseudomonas aeruginosa H9; format: cell-based
# [30] = tested on: Staphylococcus aureus FDA 209P; format: cell-based; conditions: FDA209P, nutrient agar, 37° C., 18 hours
# [31] = tested on: Pseudomonas aeruginosa No. 12; format: cell-based; conditions: nutrient agar, 37° C., 18 hours
structure (smiles),measurement,setting,value
"NCC[C@H](O)C(=O)N[C@@H]1C[C@H](N)[C@@H](O[C@H]2O[C@H](CN)[C@@H](O)[C@H](O)[C@H]2O)[C@H](O)[C@H]1O[C@H]1O[C@H](CO)[C@@H](O)[C@H](N)[C@H]1O [Amikacin, 1-N-[(S)-4-amino-2-hydroxybutyryl]kanamycin A, reference compound]",MIC,Providencia 2991,1.56 µg/mL
same,MIC,[1],0.78 µg/mL
same,MIC,Escherichia coli K-12,0.39 µg/mL
same,MIC,[2],0.39 µg/mL
same,MIC,[3],0.39 µg/mL
same,MIC,[4],100 µg/mL
same,MIC,[5],> 100 µg/mL
same,MIC,[6],3.13 µg/mL
same,MIC,"[7]; A3, nutrient agar, 37° C., 18 hours, read-out: MIC",< 0.2 µg/mL
same,MIC,Providencia Pv 16,1.56 µg/mL
same,MIC,Serratia SOU,25 µg/mL
same,MIC,"[8]; KPS102, nutrient agar, 37° C., 18 hours, read-out: MIC",6.25 µg/mL
same,MIC,Proteus rettgeri GN466,0.78 µg/mL
same,MIC,[9],0.39 µg/mL
same,MIC,[10],1.56 µg/mL
same,MIC,[11],1.56 µg/mL
same,MIC,"[12]; Pseudomonas aeruginosa, 99, nutrient agar, 37° C., 18 hours, read-out: MIC",6.25 µg/mL
same,MIC,Serratia 4,3.13 µg/mL
same,MIC,Proteus vulgaris OX19,1.56 µg/mL
same,MIC,[13],0.78 µg/mL
same,MIC,Shigella sonnei JS11746,3.13 µg/mL
same,MIC,[14],1.56 µg/mL
same,MIC,Serratia marcescens,1.56 µg/mL
same,MIC,[15],1.56 µg/mL
same,MIC,[16],3.13 µg/mL
same,MIC,[17],1.56 µg/mL
same,MIC,"[18]; B13, nutrient agar, 37° C., 18 hours, read-out: MIC",6.25 µg/mL
same,MIC,[19],1.56 µg/mL
same,MIC,[20],0.39 µg/mL
same,MIC,[21],12.5 µg/mL
same,MIC,[22],12.5 µg/mL
same,MIC,Escherichia coli JR255,0.78 µg/mL
same,MIC,Escherichia coli W677,0.78 µg/mL
same,MIC,[23],3.13 µg/mL
same,MIC,[24],0.78 µg/mL
same,MIC,[25],25 µg/mL
same,MIC,[26],3.13 µg/mL
same,MIC,[27],1.56 µg/mL
same,MIC,[28],3.13 µg/mL
same,MIC,"[29]; H9, nutrient agar, 37° C., 18 hours, read-out: MIC",6.25 µg/mL
same,MIC,[30],0.78 µg/mL
same,MIC,[31],3.13 µg/mL
"C[C@@H]1C[C@H](N)[C@@H](O)[C@@H](O[C@@H]2C[C@H](O[C@@H]3CCC[C@@H](CN)O3)[C@@H](N)C[C@H]2NC(=O)[C@@H](O)CCN)O1 [Hexadeoxyamikacin, 1-N-[(S)-4-amino-2-hydroxybutyryl]-5,2',3',4',4"",6""-hexadeoxykanamycin]",MIC,Providencia 2991,6.25 µg/mL
same,MIC,[1],1.56 µg/mL
same,MIC,Escherichia coli K-12,0.78 µg/mL
same,MIC,[2],1.56 µg/mL
same,MIC,[3],0.78 µg/mL
same,MIC,[4],> 100 µg/mL
same,MIC,[5],> 100 µg/mL
same,MIC,[6],1.56 µg/mL
same,MIC,"[7]; A3, 18 h",0.78 µg/mL
same,MIC,Providencia Pv 16,3.13 µg/mL
same,MIC,Serratia SOU,50 µg/mL
same,MIC,"[8]; KPS102, 18 h",50 µg/mL
same,MIC,Proteus rettgeri GN466,1.56 µg/mL
same,MIC,[9],0.78 µg/mL
same,MIC,[10],3.13 µg/mL
same,MIC,[11],3.13 µg/mL
same,MIC,"[12]; Pseudomonas aeruginosa, 99, 18 h",50 µg/mL
same,MIC,Serratia 4,12.5 µg/mL
same,MIC,Proteus vulgaris OX19,0.78 µg/mL
same,MIC,[13],1.56 µg/mL
same,MIC,Shigella sonnei JS11746,3.13 µg/mL
same,MIC,[14],1.56 µg/mL
same,MIC,Serratia marcescens,6.25 µg/mL
same,MIC,[15],6.25 µg/mL
same,MIC,[16],3.13 µg/mL
same,MIC,[17],1.56 µg/mL
same,MIC,"[18]; B13, 18 h",50 µg/mL
same,MIC,[19],3.13 µg/mL
same,MIC,[20],0.78 µg/mL
same,MIC,[21],100 µg/mL
same,MIC,[22],50 µg/mL
same,MIC,Escherichia coli JR255,0.78 µg/mL
same,MIC,Escherichia coli W677,0.78 µg/mL
same,MIC,[23],6.25 µg/mL
same,MIC,[24],1.56 µg/mL
same,MIC,[25],> 100 µg/mL
same,MIC,[26],3.13 µg/mL
same,MIC,[27],1.56 µg/mL
same,MIC,[28],6.25 µg/mL
same,MIC,"[29]; H9, 18 h",50 µg/mL
same,MIC,[30],0.78 µg/mL
same,MIC,[31],25 µg/mL
